Test results published in patent US9408828B2, “(+)-3′-angeloyloxy-4′-keto-3′,4′-dihydroseselin for treating inflammation” (Hong Kong Baptist University, priority 2014, dated 2016).

Tested on: DSS-induced colitis
Assay: Chronic DSS-induced colitis in mice (body weight, DAI, colon length, histology)
Type: in vivo, C57BL/6 mice
Conditions: sulfasalazine (positive control) 300 mg/kg/day for seven days
Description: 6-week-old male C57BL/6 mice weighing 18-20 g are purchased from the Laboratory Animal Services Center, the Chinese University of Hong Kong. The study protocols are approved by the committee for Care of Laboratory Animals in the School of Chinese Medicine at the Hong Kong Baptist University. The animals are divided into six groups (8-10 each group): control group (mice received drinking water and control diet), DSS-treated group (mice received 2.0% DSS in drinking and control diet), positive control group (mice received 2.0% DSS in drinking and ip, 300 mg/kg/day of sulfasalazine), Pd-Ib treatment groups will be given different dosed of Pd-Ib (mice received 2.0% DSS in drinking and i.p., 30, 60, or 120 mg/kg/day, respectively). As depicted in experiment design shown in FIG. 9, the mice are given tap water for 6 days, and then be divided into 6 groups. DSS is dissolved in distilled water at a concentration of 2% (w/v) and administered to the mice. The first day and the last day of DSS treatment are designated as day 7 and day 11, respectively. Mice are marked and checked daily for body weight. On day 12, body weight, stool consistency, and gross bleeding of each mouse are assessed, and animals showing body weight loss, diarrhea, and bleeding are selected for further analysis. All colitis mice are then interventions once daily for seven days, with eight mice in each group. The DSS model group is administered with tap water as negative control; while sulfasalazine is given as positive control (i.p., 300 mg/kg/day) and Pd-Ib treatment groups are given different doses of Pd-Ib (i.p., 30, 60, or 120 mg/kg/day, respectively). In parallel, a vehicle control group is also set up to receive drinking tap water without DSS throughout the entire experimental period. On day 19, after the mice are killed under anesthesia induced by pentobarbital sodium (i.p., 0.65 g/kg), the length of the large intestine is measured. All portions are stored at −80° C. for biochemical assays. The DAI is determined by scoring changes in the body weight, diarrhea, colon length, and bleeding. In brief, body weight, stool consistency, colon length and bleeding in the stool are monitored daily for determination of DAI. At the end of the experiment, mice are killed, and the colon is dissected from each mouse, and the length of which is measured from the ileocecal junction to the anal verge. The colons are opened longitudinally, gently washed with ice-cold PBS, fixed in 4% paraformaldehyde overnight, and embedded in paraffin. Five-micro-meter sections are stained with hematoxylin/eosin according to a standard procedure to evaluate colonic damage. Colitis is induced in all groups except the control group. Pd-Ib and sulfasalazine are administered to mice from day 6 to day 12. The change in body weight is taken as the difference between the body weight before induction of colitis and that immediately before sacrifice on day 13. The DAI score is determined by combining scores of (i) body weight loss, (ii) stool consistency, and (iii) stool bleeding. On day 13, the mice are sacrificed, and the colon lengths are measured. Data are expressed as mean±SEM, n=8 (^###p<0.001, compared with the control group; *p<0.05, **p<0.01, ***p<0.001, compared with DSS model group).

O=C(O)c1cc(/N=N/c2ccc(S(=O)(=O)Nc3ccccn3)cc2)ccc1O [sulfasalazine, Sulfasalazine, reference compound]
histological manifestation of colon tissue sections: significantly decrease the damage of colon tissues
